Test results taken from patent US9169260B2 (MERCK SHARP & DOHME CORP., priority 2011, dated 2015).

Target: GST tagged IRAK-4 (Homo sapiens (Human), UniProt Q9NWZ3)
Assay: IRAK-4 Kinase Assay (IMAP fluorescence polarization)
Format: biochemical
Details: 100 μM ATP, 30 minutes at 25° C.
In short: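 Activity was read by IMAP fluorescence polarization, where phosphopeptide binding to M(III) nanoparticles raises FP. The 30-minute, 25° C reaction used 100 μM ATP, 100 nM RP7030 substrate and 0.5 nM GST-IRAK-4 in pH 7.2 Tris buffer with MgCl2, DTT and Tween 20.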

GST tagged IRAK-4, sequence (Q9NWZ3 whole entry): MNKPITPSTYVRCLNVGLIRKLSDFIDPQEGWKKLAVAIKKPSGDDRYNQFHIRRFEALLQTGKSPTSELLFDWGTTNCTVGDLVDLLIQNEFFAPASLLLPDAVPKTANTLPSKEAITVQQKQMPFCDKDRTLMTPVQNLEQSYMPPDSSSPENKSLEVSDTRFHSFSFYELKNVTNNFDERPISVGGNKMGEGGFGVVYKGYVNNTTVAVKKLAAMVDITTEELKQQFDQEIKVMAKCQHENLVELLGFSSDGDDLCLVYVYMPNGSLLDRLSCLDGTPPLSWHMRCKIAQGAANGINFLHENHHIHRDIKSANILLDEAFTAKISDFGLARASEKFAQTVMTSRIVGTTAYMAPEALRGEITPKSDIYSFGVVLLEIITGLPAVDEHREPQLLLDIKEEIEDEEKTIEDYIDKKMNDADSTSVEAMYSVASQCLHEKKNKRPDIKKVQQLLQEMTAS

| Compound | IC50 |
| --- | --- |
| CC1(c2cc(NC(=O)c3cnn4cccnc34)n(-c3ccc(CN)cn3)n2)CC1 [Example 176, N-(1-(5-(aminomethyl)pyridin-2-yl)-3-(1-methylcyclopropyl)-1H-pyrazol-5-yl)pyrazolo[1,5-a]pyrimidine-3-carboxamide] | < 0.1 µM |
| Cc1ccc(-n2nc(C3CCC(N)CC3)cc2NC(=O)c2cnn3cccnc23)nc1 (stereo not shown) [Example 185, N-(3-(4-aminocyclohexyl)-1-(5-methylpyridin-2-yl)-1H-pyrazol-5-yl)pyrazolo[1,5-a]pyrimidine-3-carboxamide] | < 0.1 µM |
| O=C(Nc1cc(C2CCNCC2)nn1-c1nccs1)c1cnn2cccnc12 [Example 189, N-(3-(piperidin-4-yl)-1-(thiazol-2-yl)-1H-pyrazol-5-yl)pyrazolo[1,5-a]pyrimidine-3-carboxamide] | < 0.1 µM |

The next lines start with the values.

| IC50 | Compound |
| --- | --- |
| < 0.1 µM | Cc1ccc(-n2nc(-c3ccc(S(=O)(=O)N4CCOCC4)cc3)cc2NC(=O)c2cnn3cccnc23)nc1 [Example 177, N-(1-(5-methylpyridin-2-yl)-3-(4-(morpholinosulfonyl)phenyl)-1H-pyrazol-5-yl)pyrazolo[1,5-a]pyrimidine-3-carboxamide] |
| < 0.1 µM | Cc1ccc(-n2nc(-c3ccc(S(=O)(=O)N4CCN(C)CC4)cc3)cc2NC(=O)c2cnn3cccnc23)nc1 [Example 178, N-(3-(4-((4-methylpiperazin-1-yl)sulfonyl)phenyl)-1-(5-methylpyridin-2-yl)-1H-pyrazol-5-yl)pyrazolo[1,5-a]pyrimidine-3-carboxamide] |
| < 0.1 µM | Cc1ccc(-n2nc(-c3ccc(S(C)(=O)=O)cc3)cc2NC(=O)c2cnn3cccnc23)nc1 [Example 179, N-(1-(5-methylpyridin-2-yl)-3-(4-(methylsulfonyl)phenyl)-1H-pyrazol-5-yl)pyrazolo[1,5-a]pyrimidine-3-carboxamide] |

Same assay, conditions: 100 μM ATP, 30 minutes at 25° C.; μM

| Compound | IC50 |
| --- | --- |
| Cc1ccc(-n2nc(C3CCN(S(C)(=O)=O)CC3)cc2NC(=O)c2cnn3cccnc23)nc1C [Example 174, N-(1-(5,6-dimethylpyridin-2-yl)-3-(1-(methylsulfonyl)piperidin-4-yl)-1H-pyrazol-5-yl)pyrazolo[1,5-a]pyrimidine-3-carboxamide] | < 1 µM |
| Cc1nn(C)c2nc(-n3nc(C4CCN(S(C)(=O)=O)CC4)cc3NC(=O)c3cnn4cccnc34)ccc12 [Example 175, N-(1-(1,3-dimethyl-1H-pyrazolo[3,4-b]pyridin-6-yl)-3-(1-(methylsulfonyl)piperidin-4-yl)-1H-pyrazol-5-yl)pyrazolo[1,5-a]pyrimidine-3-carboxamide] | < 1 µM |
| CC(C)N1CCC(c2cc(NC(=O)c3cnn4cccnc34)n(-c3ncc[nH]3)n2)CC1 [Example 187, N-(1-(1H-imidazol-2-yl)-3-(1-isopropylpiperidin-4-yl)-1H-pyrazol-5-yl)pyrazolo[1,5-a]pyrimidine-3-carboxamide] | < 1 µM |
| CS(=O)(=O)N1CCC(c2cc(NC(=O)c3cnn4cccnc34)n(-c3nccn3S(C)(=O)=O)n2)CC1 [Example 188, N-(1-(1-(methylsulfonyl)-1H-imidazol-2-yl)-3-(1-(methylsulfonyl)piperidin-4-yl)-1H-pyrazol-5-yl)pyrazolo[1,5-a]pyrimidine-3-carboxamide] | > 1 µM |

Next, values leading:

| IC50 | Compound |
| --- | --- |
| > 1 µM | Cc1ccc(-n2nc(C3CC3)cc2NC(=O)c2cnn3cccnc23)nc1 [Example 180, N-(3-cyclopropyl-1-(5-methylpyridin-2-yl)-1H-pyrazol-5-yl)pyrazolo[1,5-a]pyrimidine-3-carboxamide] |
| > 1 µM | Cc1ccc(-n2nc(C3(C)CC3)cc2NC(=O)c2cnn3cccnc23)nc1 [Example 181, N-(3-(1-methylcyclopropyl)-1-(5-methylpyridin-2-yl)-1H-pyrazol-5-yl)pyrazolo[1,5-a]pyrimidine-3-carboxamide] |
| < 1 µM | COc1cc(NC(=O)c2cnn3cccnc23)n(-c2ccc(C)cn2)n1 [Example 182, N-(3-methoxy-1-(5-methylpyridin-2-yl)-1H-pyrazol-5-yl)pyrazolo[1,5-a]pyrimidine-3-carboxamide] |
